Assay results published in patent US20250164476A1, “COLORIMETRIC ASSAY USING DITHIOLATE-GRAFTED NANOPARTICLES FOR HIGH-THROUGHPUT SCREENING OF CRYOPROTECTANTS” (The Government of the United States of America, as …, priority 2023, published 2025).

Experiments:
[1] = Ligand effect on the freezing of AuNP (96-well serial dilution); details: for appearance of AuNP samples in presence of test ligand: before freezing, 10 nM AuNP in 1×PBS (FIG. 5A); for type of AuNP aggregation on freezing: conclusion from frozen and post-thaw states; for colloidal color of AuNP in frozen state: frozen at −20° C. for 2 hours, serial dilution, ligands from 1 mM, sucrose 40% (FIG. 5B); for colloidal color / optical properties of AuNP at post-thaw state: thawed at room temperature for 30 minutes (FIG. 5C)
Protocol: In a sample well plate series (96 wells), a 2 millimolar (mM) stock solution of the test ligands was mixed with AuNP, resulting in a 1 mM AuNP-probe solution which was deposited as a highest concentration in respective top wells (using two columns or lanes of wells for each ligand), and was serially diluted by half using 2×PBS buffer for every following well. More specifically, the stock ligand concentration, 1 mM, was diluted by ½, ¼, ⅛, 1/16, 1/32, 1/64, 1/128, and 1/256 times (from top to bottom) by using 2×PBS. After finishing serial dilution of the target materials (four ligands, here), 50 microliters (μL) of 20 nM AuNP were added to each well of the well plate series to make a 10 nM AuNP-probe in 1×PBS in each well as a final concentration. […] See the resulting sample well plate series in FIG. 5A.
FIG. 5B is an image of the 96 well plate series of FIG. 5A after freezing. Specifically, the 96 well plate series was frozen at −20° C. for 2 hours, resulting in the frozen state of the samples depicted in FIG. 5B.
FIG. 5C is an image of the 96 well plate series of FIG. 5B after thawing. More specifically, the 96 well plate series of FIG. 5B was thawed at room temperature for 30 minutes, resulting the post-thaw state of FIG. 5C.

[2] = sucrose-based sandwich assay
Protocol: More specifically, FIGS. 10A-10F show respective anti-icing samples tested including: sucrose 40% (as a negative control), AFP (RiAFP) 0.12 mg/ml, BSA 0.12 mg/ml, 10K PVA 0.12 mg/ml, 10K PVA 1 mg/ml, and zirconium acetate (ZrN) 40 mg/ml. The buffer utilized was 0.5×PBS, with the exception of ZrN which was in 80 mM HCl. For the IRI assay, each sample was prepared with 40% sucrose as a final concentration. The following procedures were performed for each sample. Initially, 2 μL of sample was dropped between two round coverslips (borosilicate, d=1.3˜1.5 cm) and sealed with grease. The sample was then inserted into a Linkam® Scientific cryostage with liquid nitrogen (LN2) control. The sample was first frozen at −50° C. for 1 min, then the temperature was increased to −20° C. at a rate of 10° C./min, followed by a slow increase in temperature to −10° C. at a speed of 1° C./min. A sample image was then taken after annealed at −10° C. for 30 minutes without interruption.

[3] = AuNP-TA/NTA probe colorimetric HTS titration assay for anti-icing activity; details: FIG. 8C; 0.2 mg/ml serially diluted, 1×PBS, frozen at −20° C. for 2 hours, thawed
Protocol: FIG. 6A is an image of a 96 well plate series titration test, utilizing an AuNP-TA/NTA probe in different test solutions at room temperature. From top to bottom there are six different testing targets: (1) AFP 0.3 mg/ml, (2) polyvinyl alcohol (PVA) 10K 0.3%, (3) bovine serum albumin (BSA) 0.3 mg/ml, (4) ethylene glycol (EG) 50%, (5) glycerol (Gly) 50%, and (6) 80 mg/ml zirconium acetate (ZrA). The buffer was 1×PBS except for the last sample ZrA, which was in 40 mM HCl (because ZrA is only active in acidic conditions). The target samples were diluted in rows by ½, ¼, ⅛, 1/16, 1/32, 1/64, 1/128, 1/256, 1/512, 1/1024, 1/2048 and 1/4096 times (from left to right) using 2×PBS or 80 mM HCl (for ZrA). Next, 50 μL of target materials were mixed with 50 μL of 20 nM AuNP-probe to make a final 1×PBS, or 40 mM HCl for the last sample, and 10 nM of AuNP probe in each well. […]
In general, titration is a common laboratory method for quantitative chemical analysis to determine the concentration of an identified analyte in terms of activity. […] Thus, it is necessary to obtain a quantified value or parameter in order to compare different test results in different conditions. […]

| Compound | appearance of AuNP samples in presence of test ligand [1] | type of AuNP aggregation on freezing [1] | colloidal color of AuNP in frozen state [1] | colloidal color / optical properties of AuNP at post-thaw state [1] | anti-icing effect in traditional IRI test [2] | anti-icing effects from concentration-dependent color changes [3] |
| --- | --- | --- | --- | --- | --- | --- |
| O=C(O)CCCCC1CCSS1 (stereo not shown) [TA, thioctic acid] | well-dispersed without any color changes | irreversible aggregation | turned translucent at the highest concentrations | remained pale at the highest concentration |  |  |
| sulfonate modified thioctic acid [TA-SO3] | well-dispersed without any color changes | reversible aggregation | red at the highest concentration without any aggregation | almost fully recovered their intrinsic optical properties |  |  |
| nitrilotriacetic acid modified thioctic acid [TA-NTA] | well-dispersed without any color changes | reversible aggregation | turned translucent at the highest concentrations | almost fully recovered their intrinsic optical properties |  |  |
| bovine serum albumin [BSA] |  |  |  |  | confirmed | low-level anti-icing effects |
| OC[C@H]1O[C@@](CO)(O[C@H]2O[C@H](CO)[C@@H](O)[C@H](O)[C@H]2O)[C@@H](O)[C@@H]1O [sucrose] | well-dispersed without any color changes |  | changed from the original red (top well, at the highest concentration) to purple, and finally to pale purple |  |  |  |
